Measurements reported in patent US11708348B2, “Protease inhibitors for treatment of coronavirus infections” (The Scripps Research Institute, priority 2021, dated 2023).

Test system: SARS-CoV-2 strain USA-WA1/2020
Assay: microbe, parasite or virus in culture
Format: cell-based
Conditions: Severe acute respiratory syndrome coronavirus 2, HeLa-ACE2, 24 h, HeLa-ACE2 cells, SARS-CoV-2 infection, 24 h; read-out: EC50, uM (Hela)

Row | SMILES | EC50
1 | O=C(N[C@@H](C[C@@H]1CCNC1=O)C(=O)COC(F)(F)F)C1CCCCN1C(=O)[C@@H](O)c1ccccc1 (stereo partly drawn) [Compound 769, l-((S)-2-hydroxy-2-phenylacetyl)-N-((S)-3-oxo-1-((S)-2-oxopyrrolidin-3-yl)-4-(trifluoromethoxy)butan-2-yl)piperidine-2-carboxamide] | < 0.05 µM
2 | CC(C)C[C@@H](O)C(=O)N1CC2(CCC2)CC1C(=O)N[C@@H](C[C@@H]1CCNC1=O)C(=O)COC(F)(F)F (stereo partly drawn) [Compound 770, 6-((R)-2-hydroxy-4-methylpentanoyl)-N-((S)-3-oxo-1-((S)-2-oxopyrrolidin-3-yl)-4-(trifluoromethoxy)butan-2-yl)-6-azaspiro[3.4]octane-7-carboxamide] | 0.05 to 0.2 µM
3 | CC(C)C[C@@H](O)C(=O)N1C[C@@H](CC2CCC2)C[C@H]1C(=O)N[C@@H](C[C@@H]1CCNC1=O)C(=O)COC(F)(F)F [Compound 772, (2S,4S)-4-(cyclobutylmethyl)-1-((R)-2-hydroxy-4-methylpentanoyl)-N-((S)-3-oxo-1-((S)-2-oxopyrrolidin-3-yl)-4-(trifluoromethoxy)butan-2-yl)pyrrolidine-2-carboxamide] | < 0.05 µM
4 | O=C1NCC[C@H]1C[C@H](NC(=O)[C@@H]1CC2(CC2)CN1C(=O)COc1ccc(OC(F)(F)F)cc1)C(=O)COC(F)(F)F [Compound 773, (S)-N-((S)-3-oxo-1-((S)-2-oxopyrrolidin-3-yl)-4-(trifluoromethoxy)butan-2-yl)-5-(2-(4-(trifluoromethoxy)phenoxy)acetyl)-5-azaspiro[2.4]heptane-6-carboxamide] | < 0.05 µM
5 | CC(C)C[C@@H](O)C(=O)N1CC2(CC2)C[C@H]1C(=O)N[C@@H](C[C@@H]1CCCNC1=O)C(=O)COc1c(F)c(F)c(F)c(F)c1F [Compound 779, (S)-5-((R)-2-hydroxy-4-methylpentanoyl)-N-((S)-3-oxo-1-((S)-2-oxopiperidin-3-yl)-4-(perfluorophenoxy)butan-2-yl)-5-azaspiro[2.4]heptane-6-carboxamide] | < 0.05 µM
6 | O=C1NCC[C@H]1C[C@H](NC(=O)[C@@H]1C[C@@H](c2ccccc2)CN1C(=O)[C@@H](O)c1ccccc1)C(=O)COC(F)(F)F [Compound 780, (2S,4S)-1-((S)-2-hydroxy-2-phenylacetyl)-N-((S)-3-oxo-1-((S)-2-oxopyrrolidin-3-yl)-4-(trifluoromethoxy)butan-2-yl)-4-phenylpyrrolidine-2-carboxamide] | < 0.05 µM
7 | O=C1NCC[C@H]1C[C@H](NC(=O)[C@@H]1[C@H]2CCC[C@H]2CN1C(=O)c1noc2cc(Cl)ccc12)C(=O)COC(F)(F)F [Compound 783, (1S,3aR,6aS)-2-(6-chlorobenzo[d]isoxazole-3-carbonyl)-N-((S)-3-oxo-1-((S)-2-oxopyrrolidin-3-yl)-4-(trifluoromethoxy)butan-2-yl)octahydrocyclopenta[c]pyrrole-1-carboxamide] | < 0.05 µM
8 | O=C1NCC[C@H]1C[C@H](NC(=O)[C@@H]1C[C@@H](C(F)(F)F)CN1C(=O)[C@@H](O)c1ccccc1)C(=O)COC(F)(F)F [Compound 785, (2S,4R)-1-((S)-2-hydroxy-2-phenylacetyl)-N-((S)-3-oxo-1-((S)-2-oxopyrrolidin-3-yl)-4-(trifluoromethoxy)butan-2-yl)-4-(trifluoromethyl)pyrrolidine-2-carboxamide] | 0.05 to 0.2 µM
9 | O=C1NCC[C@H]1C[C@H](NC(=O)[C@@H]1C[C@@H](c2ccccc2)CN1C(=O)[C@H](O)c1ccccc1)C(=O)COC(F)(F)F [Compound 786, (2S,4S)-1-((R)-2-hydroxy-2-phenylacetyl)-N-((S)-3-oxo-1-((S)-2-oxopyrrolidin-3-yl)-4-(trifluoromethoxy)butan-2-yl)-4-phenylpyrrolidine-2-carboxamide] | 0.05 to 0.2 µM
10 | CC(C)C[C@@H](O)C(=O)N1[C@H](C(=O)N[C@@H](C[C@@H]2CCNC2=O)C(=O)COC(F)(F)F)CCC1(C)C [Compound 787, (S)-1-((R)-2-hydroxy-4-methylpentanoyl)-5,5-dimethyl-N-((S)-3-oxo-1-((S)-2-oxopyrrolidin-3-yl)-4-(trifluoromethoxy)butan-2-yl)pyrrolidine-2-carboxamide] | 0.05 to 0.2 µM
